{
  "source": "patent US10568840B2",
  "about": "“Self assembled gels for controlled delivery of encapsulated agents to cartilage” (The Brigham and Women's Hospital, Inc., priority 2016, dated 2020)",
  "key": {"[1]": {"assay": "Log P of GRAS amphiphiles", "assay_type": "physicochemical", "conditions": "GRAS amphiphile alone", "from_the_text": "(log P is the partition coefficient of a molecule between an aqueous and lipophilic phases, usually octanol and water; commonly used as a measure of lipophilicity of a compound.)"}, "[2]": {"assay": "In vitro release of L-006235 from SP and SP-DOTAP hydrogel (dialysis, HPLC)", "assay_type": "physicochemical", "conditions": "from hydrogel in PBS at 37° C.; in 7 days", "method": "SP-DOTAP gel was assayed for its ability to retain the encapsulated Cathepsin-K inhibitor, L-006235, loaded at 10% (w/w). In vitro release of L-006235 from SP-only hydrogel and from SP-DOTAP hydrogel was evaluated in PBS at 37° C. Drug-loaded hydrogels (200 μL, 10 mg drug/mL) further suspended in PBS (800 μl) were placed in dialysis tubing (8-10 kD molecular weight cut-off, Spectrum Labs). The dialysis bags filled with hydrogel in the suspension medium were placed in a 40 mL sink medium (PBS), and incubated at 37° C. with a shaking speed of 150 rpm. At each time point, an aliquot (1 ml) from the sink medium was removed and replenished with the same volume of fresh PBS to ensure constant sink conditions. Aliquots were lyophilized and dissolved in 250 μL methanol, followed by high performance liquid chromatography (HPLC) analysis of the drug amount."}},
  "data": [
    {"molecule": "sucrose palmitate [SP]", "values": [
      {"measurement": "Log P", "setting": "[1]; Table 1", "value": 0.64},
      {"measurement": "Log P", "setting": "[1]; Table 2", "value": 0.64}
    ]},
    {"molecule": "CCCCCCCCCCCCCCCC(=O)OC[C@H](O)[C@H]1OC(=O)C(O)=C1O", "note": "[AP, ascorbyl palmitate]", "values": [
      {"measurement": "logP", "setting": "[1]; aqueous and lipophilic phases, usually octanol and water, Table 1", "value": 4.62}
    ]},
    {"molecule": "sucrose stearate [SS]", "values": [
      {"measurement": "Log P", "setting": "[1]; Table 1", "value": 1.416}
    ]},
    {"molecule": "triglycerol monostearate [TG18]", "values": [
      {"measurement": "Log P", "setting": "[1]; Table 1", "value": 3.899},
      {"measurement": "Log P", "setting": "[1]; Table 2", "value": 3.899}
    ]},
    {"molecule": "CN1CCN(c2nc(-c3ccc(C(=O)NC4(C(=O)NCC#N)CCCCC4)cc3)cs2)CC1", "note": "[L-006235]", "values": [
      {"measurement": "cumulative release of L-006235", "setting": "[2]", "value": "less than 10%"}
    ]}
  ]
}
